# Measurements as given in patent US10336739B2, “4-hydroxy-3-(heteroaryl)pyridine-2-one APJ agonists” (BRISTOL-MYERS SQUIBB COMPANY, priority 2015, dated 2019).
# Target: human APJ receptor (Homo sapiens (Human), UniProt P35414)
# Test: Intracellular cAMP accumulation assay (APJ hcAMP, HTRF)
# Type: cell-based
# Conditions: HEK293 cells stably expressing human APJ receptor; inhibition of forskolin-mediated cAMP production; read-out: hAPJ cAMP EC50 Potency range
# Description: Intracellular cAMP Accumulation Assay
# HEK293 cells stably expressing human APJ receptor were used to assess the activity of compounds. Cultured cells were detached and resuspended in the cAMP Homogeneous Time-Resolved Fluorescence (HTRF) assay buffer (Cisbio cat; #62AM4PEJ). The assay was performed in 384-well assay plates (Perkin-Elmer; cat #6008289) according to assay protocol provided by the manufacturer. Serial dilutions of a compound together with assay buffer containing […] and 2 μM forskolin were added to each well containing 5,000 cells and incubated for 30 minutes at room temperature. Subsequently, cAMP D2 reagent was added in the lysis buffer followed by the EuK antibody (Cisbio; cat #62AM4PEJ) and incubated for 60 min. The fluorescence emission ratio was measured using fluorometer. The intracellular cAMP concentrations (compound-stimulated inhibition of forskolin-mediated cAMP production) were calculated by extrapolation from a standard curve using known cAMP concentrations. The EC50 values were obtained by fitting the data to a sigmoidal concentration-response curve with variable slope.
# human APJ receptor, sequence (P35414 whole entry): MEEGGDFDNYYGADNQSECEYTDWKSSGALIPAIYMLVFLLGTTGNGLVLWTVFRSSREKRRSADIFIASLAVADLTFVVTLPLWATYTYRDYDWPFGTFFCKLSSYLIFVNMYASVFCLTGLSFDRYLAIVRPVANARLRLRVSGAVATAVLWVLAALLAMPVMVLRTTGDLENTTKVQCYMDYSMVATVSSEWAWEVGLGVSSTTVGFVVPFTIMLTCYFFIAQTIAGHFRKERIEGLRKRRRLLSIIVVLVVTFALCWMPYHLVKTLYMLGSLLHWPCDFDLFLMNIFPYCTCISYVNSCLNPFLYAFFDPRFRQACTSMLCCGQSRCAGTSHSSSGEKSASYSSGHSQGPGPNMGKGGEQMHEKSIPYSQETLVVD
row,SMILES,EC50 [nM]
1,"CCCCc1nc(O)c(-c2nnc(Cc3ccnc(Cl)c3)o2)c(O)c1-c1c(OC)cccc1OC [Example 59, 6-butyl-3-{5-[(2-chloropyridin-4-yl)methyl]-1,3,4-oxadiazol-2-yl}-5-(2,6-dimethoxyphenyl) pyridine-2,4-diol]",0.01 to 10
2,"CCCCc1nc(O)c(-c2nnc(CCc3nc(-c4ccc(OC)cc4)no3)o2)c(O)c1-c1c(OC)cccc1OC [Example 60, 6-butyl-5-(2,6-dimethoxyphenyl)-3-(5-{2-[3-(4-methoxyphenyl)-1,2,4-oxadiazol-5-yl]ethyl}-1,3,4-oxadiazol-2-yl)pyridine-2,4-diol]",10 to 100
3,"CCCCc1nc(O)c(-c2nnc(C3NCCc4ccccc43)o2)c(O)c1-c1c(OC)cccc1OC (stereo not drawn) [Example 61, 6-butyl-5-(2,6-dimethoxyphenyl)-3-[5-(1,2,3,4-tetra-hydroisoquinolin-1-yl)-1,3,4-oxadiazol-2-yl]pyridine-2,4-diol]",0.01 to 10
4,"CCCCc1nc(O)c(-c2nnc(C(C)(C)c3ccc(Cl)c(Cl)c3)o2)c(O)c1-c1c(OC)cccc1OC [Example 62, 6-butyl-3-{5-[2-(3,4-dichlorophenyl)propan-2-yl]-1,3,4-oxadiazol-2-yl}-5-(2,6-dimethoxyphenyl) pyridine-2,4-diol]",0.01 to 10
5,"CCCCc1nc(O)c(-c2nnc(Cc3nnn(C)n3)o2)c(O)c1-c1c(OC)cccc1OC [Example 63, 6-butyl-5-(2,6-dimethoxyphenyl)-3-{5-[(2-methyl-2H-1,2,3,4-tetrazol-5-yl)methyl]-1,3,4-oxadiazol-2-yl}pyridine-2,4-diol]",0.01 to 10
6,"CCCCc1nc(O)c(-c2nnc(C(C)(C)Cc3ccccc3)o2)c(O)c1-c1c(OC)cccc1OC [Example 64, 6-butyl-5-(2,6-dimethoxyphenyl)-3-[5-(2-methyl-1-phenylpropan-2-yl)-1,3,4-oxadiazol-2-yl]pyridine-2,4-diol]",0.01 to 10
7,"CCCCc1nc(O)c(-c2nnc(COc3ccc(C(F)(F)F)cc3)o2)c(O)c1-c1c(OC)cccc1OC [Example 65, 6-butyl-5-(2,6-dimethoxyphenyl)-3-{5-[4-(trifluoromethyl)phenoxymethyl]-1,3,4-oxadiazol-2-yl}pyridine-2,4-diol]",10 to 100
8,"CCCCc1nc(O)c(-c2nnc(Cc3nnc(-c4ccccc4)[nH]3)o2)c(O)c1-c1c(OC)cccc1OC [Example 66, 6-butyl-5-(2,6-dimethoxyphenyl)-3-{5-[(5-phenyl-4H-1,2,4-triazol-3-yl)methyl]-1,3,4-oxadiazol-2-yl}pyridine-2,4-diol]",0.01 to 10
9,"CCCCc1nc(O)c(-c2nnc(CC3CCCCC3)o2)c(O)c1-c1c(OC)cccc1OC [Example 67, 6-butyl-3-[5-(cyclohexylmethyl)-1,3,4-oxadiazol-2-yl]-5-(2,6-dimethoxyphenyl) pyridine-2,4-diol]",0.01 to 10
10,"CCCCc1nc(O)c(-c2nnc(CCc3ccc(Cl)cc3)o2)c(O)c1-c1c(OC)cccc1OC [Example 68, 6-butyl-3-{5-[2-(4-chlorophenyl)ethyl]-1,3,4-oxadiazol-2-yl}-5-(2,6-dimethoxyphenyl) pyridine-2,4-diol]",0.01 to 10
11,"CCCCc1nc(O)c(-c2nnc(CC3CCOCC3)o2)c(O)c1-c1c(OC)cccc1OC [Example 69, 6-butyl-5-(2,6-dimethoxyphenyl)-3-[5-(oxan-4-ylmethyl)-1,3,4-oxadiazol-2-yl]pyridine-2,4-diol]",10 to 100
12,"CCCCc1nc(O)c(-c2nnc(Cc3ccc(F)c(Cl)c3)o2)c(O)c1-c1c(OC)cccc1OC [Example 70, 6-butyl-3-{5-[(3-chloro-4-fluorophenyl)methyl]-1,3,4-oxadiazol-2-yl}-5-(2,6-dimethoxyphenyl) pyridine-2,4-diol]",0.01 to 10
13,"CCCCc1nc(O)c(-c2nnc(Cc3ccc(Cl)c(F)c3)o2)c(O)c1-c1c(OC)cccc1OC [Example 71, 6-butyl-3-{5-[(4-chloro-3-fluorophenyl)methyl]-1,3,4-oxadiazol-2-yl}-5-(2,6-dimethoxyphenyl) pyridine-2,4-diol]",0.01 to 10
14,"CCCCc1nc(O)c(-c2nnc(CCc3nccs3)o2)c(O)c1-c1c(OC)cccc1OC [Example 72, 6-butyl-5-(2,6-dimethoxyphenyl)-3-{5-[2-(1,3-thiazol-2-yl)ethyl]-1,3,4-oxadiazol-2-yl}pyridine-2,4-diol]",0.01 to 10
15,"CCCCc1nc(O)c(-c2nnc(Cc3cccc(C(F)(F)F)c3)o2)c(O)c1-c1c(OC)cccc1OC [Example 73, 6-butyl-5-(2,6-dimethoxyphenyl)-3-(5-{[3-(trifluoromethyl)phenyl]methyl}-1,3,4-oxadiazol-2-yl)pyridine-2,4-diol]",10 to 100
16,"CCCCc1nc(O)c(-c2nnc(CCc3ccc(F)c(F)c3)o2)c(O)c1-c1c(OC)cccc1OC [Example 74, 6-butyl-3-{5-[2-(3,4-difluorophenyl)ethyl]-1,3,4-oxadiazol-2-yl}-5-(2,6-dimethoxyphenyl) pyridine-2,4-diol]",0.01 to 10
17,"CCCCc1nc(O)c(-c2nnc(CCc3ccc(C(F)(F)F)cc3)o2)c(O)c1-c1c(OC)cccc1OC [Example 75, 6-butyl-5-(2,6-dimethoxyphenyl)-3-(5-{2-[4-(trifluoromethyl)phenyl]ethyl}-1,3,4-oxadiazol-2-yl)pyridine-2,4-diol]",10 to 100
18,"CCCCc1nc(O)c(-c2nnc(COc3ccc(F)c(F)c3)o2)c(O)c1-c1c(OC)cccc1OC [Example 76, 6-butyl-3-[5-(3,4-difluorophenoxy-methyl)-1,3,4-oxadiazol-2-yl]-5-(2,6-dimethoxyphenyl) pyridine-2,4-diol]",10 to 100
19,"CCCCc1nc(O)c(-c2nnc(CCc3nc(-c4ccccc4)no3)o2)c(O)c1-c1c(OC)cccc1OC [Example 77, 6-butyl-5-(2,6-dimethoxyphenyl)-3-{5-[2-(3-phenyl-1,2,4-oxadiazol-5-yl)ethyl]-1,3,4-oxadiazol-2-yl}pyridine-2,4-diol]",10 to 100
20,"CCCCc1nc(O)c(-c2nnc(Cc3cnn(-c4ccccc4)c3)o2)c(O)c1-c1c(OC)cccc1OC [Example 78, 6-butyl-5-(2,6-dimethoxyphenyl)-3-{5-[(1-phenyl-1H-pyrazol-4-yl)methyl]-1,3,4-oxadiazol-2-yl}pyridine-2,4-diol]",10 to 100
21,"CCCCc1nc(O)c(-c2nnc(Cc3csc(C)n3)o2)c(O)c1-c1c(OC)cccc1OC [Example 79, 6-butyl-5-(2,6-dimethoxyphenyl)-3-{5-[(2-methyl-1,3-thiazol-4-yl)methyl]-1,3,4-oxadiazol-2-yl}pyridine-2,4-diol]",0.01 to 10
22,"CCCCc1nc(O)c(-c2nnc(Cc3ccc(C(F)(F)F)cc3)o2)c(O)c1-c1c(OC)cccc1OC [Example 80, 6-butyl-5-(2,6-dimethoxyphenyl)-3-(5-{[4-(trifluoromethyl)phenyl]methyl}-1,3,4-oxadiazol-2-yl)pyridine-2,4-diol]",0.01 to 10
23,"CCCCc1nc(O)c(-c2nnc(CCc3ncccn3)o2)c(O)c1-c1c(OC)cccc1OC [Example 81, 6-butyl-5-(2,6-dimethoxyphenyl)-3-{5-[2-(pyrimidin-2-yl)ethyl]-1,3,4-oxadiazol-2-yl}pyridine-2,4-diol]",0.01 to 10
24,"CCCCc1nc(O)c(-c2nnc(CCc3nc4ccccc4s3)o2)c(O)c1-c1c(OC)cccc1OC [Example 82, 3-{5-[2-(1,3-benzothiazol-2-yl)ethyl]-1,3,4-oxadiazol-2-yl}-6-butyl-5-(2,6-dimethoxyphenyl) pyridine-2,4-diol]",0.01 to 10
